According to patent US6492137B1, “Response element compositions and assays employing same” (The Salk Institute for Biological Studies, priority 1989, dated 2002):

T1: RAR (Homo sapiens, UniProt P10276)
T1 construct: expressed in transfected cells; host or cells: CV-1 (monkey kidney)
T1 sequence (P10276 1-462): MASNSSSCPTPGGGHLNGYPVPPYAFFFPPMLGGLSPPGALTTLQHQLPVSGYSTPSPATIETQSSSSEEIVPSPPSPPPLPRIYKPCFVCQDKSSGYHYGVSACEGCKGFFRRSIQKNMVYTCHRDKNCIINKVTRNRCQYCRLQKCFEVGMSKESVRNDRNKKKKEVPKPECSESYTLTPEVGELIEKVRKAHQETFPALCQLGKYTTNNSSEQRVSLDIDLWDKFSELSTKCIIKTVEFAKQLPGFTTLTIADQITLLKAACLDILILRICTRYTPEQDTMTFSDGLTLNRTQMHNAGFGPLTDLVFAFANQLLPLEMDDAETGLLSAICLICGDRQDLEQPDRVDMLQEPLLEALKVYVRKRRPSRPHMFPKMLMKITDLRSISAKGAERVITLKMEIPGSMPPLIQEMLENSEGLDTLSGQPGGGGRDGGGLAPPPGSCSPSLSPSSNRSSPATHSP

T2: TRβ (Homo sapiens, UniProt P10828)
T2 sequence (P10828 1-461): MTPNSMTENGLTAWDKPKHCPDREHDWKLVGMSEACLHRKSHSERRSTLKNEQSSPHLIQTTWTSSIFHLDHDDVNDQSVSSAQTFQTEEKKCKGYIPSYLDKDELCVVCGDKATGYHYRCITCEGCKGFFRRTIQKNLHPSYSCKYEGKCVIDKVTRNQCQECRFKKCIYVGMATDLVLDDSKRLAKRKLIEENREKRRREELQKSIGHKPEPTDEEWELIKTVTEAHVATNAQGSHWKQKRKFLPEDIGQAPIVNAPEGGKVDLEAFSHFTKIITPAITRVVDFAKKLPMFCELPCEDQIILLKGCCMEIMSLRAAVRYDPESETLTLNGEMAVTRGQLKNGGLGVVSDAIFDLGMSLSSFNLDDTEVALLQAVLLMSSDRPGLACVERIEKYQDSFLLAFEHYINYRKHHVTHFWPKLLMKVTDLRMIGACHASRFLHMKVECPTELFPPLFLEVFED

T3: RARα (Homo sapiens, UniProt P10276)
T3 sequence (P10276 1-462): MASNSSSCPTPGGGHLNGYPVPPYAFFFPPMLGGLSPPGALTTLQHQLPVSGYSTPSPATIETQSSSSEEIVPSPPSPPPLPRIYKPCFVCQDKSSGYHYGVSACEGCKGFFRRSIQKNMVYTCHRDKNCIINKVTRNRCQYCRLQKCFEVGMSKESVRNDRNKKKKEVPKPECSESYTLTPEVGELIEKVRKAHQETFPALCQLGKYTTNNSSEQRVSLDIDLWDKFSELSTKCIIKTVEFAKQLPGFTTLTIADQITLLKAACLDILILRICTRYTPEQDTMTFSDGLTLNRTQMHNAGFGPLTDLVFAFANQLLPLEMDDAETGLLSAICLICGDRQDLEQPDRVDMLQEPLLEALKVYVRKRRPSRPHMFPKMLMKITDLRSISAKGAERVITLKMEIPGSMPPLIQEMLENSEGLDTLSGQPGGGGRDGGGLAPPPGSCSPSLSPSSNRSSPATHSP

T4: Retinoic acid receptor alpha (RARα), in CV-1 cells (Homo sapiens, UniProt P10276 P10276:1-462)
T4 sequence: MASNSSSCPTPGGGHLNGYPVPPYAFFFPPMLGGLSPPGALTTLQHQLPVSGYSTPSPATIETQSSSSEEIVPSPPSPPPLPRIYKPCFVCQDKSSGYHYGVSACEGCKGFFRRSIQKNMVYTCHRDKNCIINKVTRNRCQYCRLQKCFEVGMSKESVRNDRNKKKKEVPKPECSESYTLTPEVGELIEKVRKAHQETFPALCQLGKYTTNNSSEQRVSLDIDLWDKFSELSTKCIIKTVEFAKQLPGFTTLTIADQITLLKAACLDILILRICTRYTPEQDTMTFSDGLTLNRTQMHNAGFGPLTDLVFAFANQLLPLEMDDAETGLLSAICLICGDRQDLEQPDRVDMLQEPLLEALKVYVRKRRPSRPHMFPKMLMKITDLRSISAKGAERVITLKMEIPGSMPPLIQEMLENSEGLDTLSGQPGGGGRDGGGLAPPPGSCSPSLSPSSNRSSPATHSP


Experiments:
endogenous RA receptor [1] = experiment: Delta-MTV-CAT constructs, RA induction in CV-1 cells without cotransfected RAR expression vector; assay type: cell-based, monkey
Protocol: (§1) Cells were transfected in 10 cm dishes with 10 μg of DNA containing 5 μg of reporter plasmid, 1-2 μg of either RSV-LUC (a), or RSV-βGAL or pCH110 (c and d), pGEM4 as carrier DNA, and for the experiments shown in a and d, 1 μg of RSV-RAR expression vector or the same amount of an RSV vector generating a nonsense transcript. Cells were harvested 1 day after addition of retinoic acid. All CAT assays represent equivalent amounts of β-galactosidase activity; β-GAL assays were normalized to luciferase activity.

RAR = target: T1, RAR; experiment: Delta-MTV constructs, RA induction in CV-1 cells with cotransfected RAR expression vector; assay type: cell-based; settings: Delta-MTV-CAT constructs; CV-1 cells
Protocol: Inspection of the sequences of βRE1, βRE2, and βRE3 (see FIG. 2b) identifies a tandem repeat of the 6 bp motif. The center to center separation of 11 bp between these repeats is one turn of the DNA helix. […] Apparently, a single half site element of the RARβ gene would reciprocally be responsive to the TR, ER, and/or other members of the receptor superfamily.
as §1

endogenous RA receptor [2] = experiment: Survey of cell lines for RA-dependent transactivation of the βRARE without transfected RAR; assay type: cell-based; settings: CV-1, F9, P19, CHO, HeLa, NIH 3T3, Rat2 fibroblasts, HT1080.T, chick embryo fibroblasts, quail QT6 cells
TRβ = target: T2, TRβ; experiment: Gel retardation DNA-binding assay with TRβ-expressing COS cell extracts; design: expressed in transfected cells; host or cells: COS cells (whole-cell extract)
Summary of the method: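 Extracts of COS cells transfected with pCMX TRβ expression plasmid, 48 h post-transfection; 5 μg protein pre-incubated on ice 20 min with poly dI/dC, then 40 fmole 32P-labelled oligonucleotide 30 min at room temperature. Complexes resolved on 5% polyacrylamide gel.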

RARα = target: T3, RARα; experiment: Gel retardation DNA-binding assay with RARα-expressing COS cell extracts; design: expressed in transfected cells; host or cells: COS cells (whole-cell extract)
Protocol: For DNA binding assays, COS cells were cultured in DMEM with 10% calf bovine serum and transfected by the calcium phosphate method with 20 μg of the pCMX receptor expression plasmid for 6 hours followed by a glycerol shock. After incubating the transfected COS cells for another 48 hours, the cells were harvested to prepare extracts for the DNA binding assay, carried out as described by Damm et al., Nature 339: 593-597 (1989). The extracts were made in 20 mM HEPES (pH 7.4), 0.4 M KCl, 2 mM DTT and 20% glycerol. A similar method was employed to prepare a whole cell extract from F9 stem cells. For the binding, 5 μg (COS) or 10 μg (F9) of proteins was incubated on ice for 20 minutes, first in 20 mM HEPES, 80 mM KCl, 1 mM DTT, 0.1% NP40, 2.5 μg of poly dI/dC, and 10% glycerol (cold competitor oligonucleotides, when included, were added during this pre-incubation period). Then 40 fmole of ^32P-labeled oligonucleotide probe (1-2×10^5 cpm, prepared by filling-in reaction using Klenow polymerase in the presence of α-^32P-dCTP) was added to the reaction mixture, followed by incubation at room temperature for 30 minutes. The receptor-DNA complexes were resolved by electrophoresis through 5% polyacrylamide gel containing 5% glycerol at 6 V/cm at room temperature.
Oligonucleotides listed in FIG. 3 were used as a probe to test specific DNA-binding of the RARα and TRβ in a gel retardation assay. On the βRARE, a faint background binding activity was detected in the mock transfected COS cell extract. […] In each case the result obtained from in vivo transactivation and in vitro DNA binding are consistent.
Using the mobility shift assay, the DNA-binding capacity of extracts from COS cells expressing TRβ and RARα to these sequences was also tested. […] This pattern is consistent with that of the in vivo activation (FIG. 4). A reciprocal pattern was obtained when the same oligonucleotides were used to compete RARα binding to the ^32P-labeled βRARE. […] This provides a striking example of the role of half-site spacing in generating a functional response element.

[3] = target: T4, Retinoic acid receptor alpha (RARα), in …; experiment: cell_activity; RA 1 µM, CV-1; settings: tags: RSV or pRS expression vector; label: 32P; 5'-agct overhangs
Protocol: For cotransfection assays, a monkey kidney cell line CV-1 was kept in Dulbecco's modified Eagle's medium (DMEM) supplemented with 10% charcoal-resin double split calf bovine serum. Transfections were performed via calcium-phosphate precipitation method as described by Umesono, et al. in Cell 57: 1139–1146 (1989), with 0.5 μg of a pRS receptor expression plasmid, 1.0 μg of a reporter CAT plasmid, 5 μg of pRAS-βGAL [Umesono, et al., Cell 57: 1139–1146 (1989)] as an internal control, and 8.5 μg of carrier plasmid pUC19. The cells were transfected for 8 hours; after washing the DNA precipitates, the cells were then incubated for an additional 36 hours with or without the ligand (T_3, 100 nM; RA, 1 μM; 1,25-(OH)_2 vitamin D_3, 100 nM). Cell extracts were prepared for βGAL and CAT assays, as described by Umesono, et al., supra. Transfection of F9 teratocarcinoma cells was carried out employing a similar method except the cells were incubated for 12 hours in the presence of the DNA precipitates, and the RA was added at 1 μM for another 24 hours before harvesting the cells. 2, 5, and 4 μg of the reporter, pRAS-βGAL, and pUC19 were used, respectively.
The above strategies were used to test both in vivo transactivation and in vitro DNA-binding of these artificial HREs for TRβ, RARα, and VDR. […]

Molecule | RA-dependent induction in the absence of cotransfected RAR expression vector (endogenous RA receptor [1]) | increase of induction by cotransfection of RAR-alpha expression vector (RAR) | RA-dependent transactivation in the absence of transfected RAR expression vector (endogenous RA receptor [2]) | TRβ binding to labeled oligonucleotide probe (TRβ; gel retardation, TRβ COS cell extract) | competition for TRβ binding (mobility shift assay) (TRβ; unlabeled competitor oligonucleotide, COS cells expressing TRβ) | RARα binding to labeled oligonucleotide probe (RARα; gel retardation, RARα COS cell extract) | competition for RARα binding to 32P-labeled βRARE (RARα; unlabeled competitor oligonucleotide, COS cell extracts) | activity [3] [fold induction]
5′-AAGCTTAAG-GGTTCA-CCGAA-AGTTCA-CTCGCATAGCTT-3′ (SEQ ID NO:6) (AAGCTTAAGGGTTCACCGAAAGTTCACTCGCATAGCTT; DNA, backbone not given here) [βRE2, oligonucleotide including the β retinoic acid response element; βRARE corresponds to βRE2] | robust RA-dependent induction | two-fold | efficiently transactivate | weak, yet detectable binding activity | poor competitors | dramatically enhanced | effective competitors | –
DR-5 (dsDNA) DNA 1: AGCTTCAGGTCACCAGGAGGTCAGAGAGCT DNA 2: AGCTCTCTGACCTCCTGGTGACCTGAAGCT | – | – | – | – | – | – | – | 9
